From the NIST ThermoML archive (doi:10.1021/je800999s)
Numbers after ± are expanded uncertainties.

Assay: molar heat capacity at constant pressure; xn = mol fraction of the nth substance listed
Details: 101 kPa, Liquid, Large sample (1 g) DSC

O=CN1CCOCC1 [N-formylmorpholine] + O
molar heat capacity at constant pressure [J/K/mol]
Details | x1 = 0.0997 | x1 = 0.1998 | x1 = 0.2992 | x1 = 0.3993 | x1 = 0.4975 | x1 = 0.5978 | x1 = 0.6954 | x1 = 0.7988 | x1 = 0.8946 | x1 = 1
303.15 K | 86 ± 4 | 98 ± 4 | 111 ± 5 | 123 ± 5 | 134 ± 6 | 145 ± 6 | 154 ± 7 | 164 ± 7 | 174 ± 7 | 185 ± 8
308.15 K | 86 ± 4 | 99 ± 4 | 111 ± 5 | 124 ± 5 | 135 ± 6 | 146 ± 6 | 156 ± 7 | 166 ± 7 | 176 ± 7 | 186 ± 8
313.15 K | 87 ± 4 | 100 ± 4 | 113 ± 5 | 125 ± 5 | 137 ± 6 | 148 ± 6 | 158 ± 7 | 168 ± 7 | 178 ± 8 | 188 ± 8
318.15 K | 87 ± 4 | 100 ± 4 | 114 ± 5 | 126 ± 5 | 138 ± 6 | 149 ± 6 | 159 ± 7 | 169 ± 7 | 179 ± 8 | 189 ± 8
323.15 K | 88 ± 4 | 101 ± 4 | 115 ± 5 | 127 ± 5 | 140 ± 6 | 150 ± 6 | 161 ± 7 | 171 ± 7 | 181 ± 8 | 191 ± 8
328.15 K | 88 ± 4 | 102 ± 4 | 116 ± 5 | 129 ± 6 | 141 ± 6 | 152 ± 6 | 162 ± 7 | 173 ± 7 | 183 ± 8 | 193 ± 8
333.15 K | 89 ± 4 | 103 ± 4 | 117 ± 5 | 130 ± 6 | 142 ± 6 | 153 ± 7 | 164 ± 7 | 174 ± 7 | 184 ± 8 | 195 ± 8
338.15 K | 90 ± 4 | 104 ± 4 | 118 ± 5 | 131 ± 6 | 144 ± 6 | 155 ± 7 | 166 ± 7 | 176 ± 7 | 186 ± 8 | 197 ± 8
343.15 K | 91 ± 4 | 106 ± 5 | 120 ± 5 | 133 ± 6 | 146 ± 6 | 157 ± 7 | 168 ± 7 | 178 ± 8 | 189 ± 8 | 200 ± 9
348.15 K | 91 ± 4 | 107 ± 5 | 121 ± 5 | 135 ± 6 | 147 ± 6 | 158 ± 7 | 169 ± 7 | 180 ± 8 | 190 ± 8 | 201 ± 9
353.15 K | 92 ± 4 | 107 ± 5 | 122 ± 5 | 135 ± 6 | 148 ± 6 | 159 ± 7 | 170 ± 7 | 181 ± 8 | 191 ± 8 | 202 ± 9
